# Read-outs that look alike come from different tables or passages of the source.
# What was measured:
# [1] = target: T1, acetylcholine nicotinic receptor (Rattus norvegicus, UniProt P09483+P12390); assay: Nicotinic receptor binding, [3H]-NMCI radioligand, rat cortex (Table 6)
# T1 construct: rat cortex as the tissue substrate; from tissue; host or cells: rat cortex
# Procedure: 7-Aza-bicyclo[2.2.1]-heptanes and -heptenes were evaluated for their ability to bind to the acetylcholine nicotinic receptor using a standard binding assay, e.g. X. Zhang and A. Nordberg, Arch. Pharmacol., 348, 28 (1993); R. E. Middleton and J. B. Cohen, Biochemistry, 30, 6987 (1991), with nicotine sulfate as the reference compound, rat cortex as the tissue substrate, and a [^3 H]-NMCI radioligand.
# [2] = Tail-flick assay (Tables 7 and 8, species not stated per value); format: in vivo, mice and rats; conditions: for ED50: Mus musculus, sc, 5 min, read-out: Tail-Flick Assay ED50; for Tail-Flick Assay % Effect after 5 min: Table 7, 5 min; for Tail-Flick Assay % Effect after 5 min / Tail-Flick Assay % Effect after 60 min: head also prints ED50 (mg/kg); for Tail-Flick Assay % Effect after 60 min: Table 7, 60 min
# Procedure: (§1) Female CD-1 mice (20-25 g, Charles River Labs) and male CD rats (300-400 g, Charles River Labs) were housed in groups of two and five, respectively. Animals were given food and water ad libitum. Most studies were performed using groups of 5 animals per treatment unless otherwise noted.
# (§2) Antinociceptive effects (i.e., analgesia) of test compounds in mice and rats were measured by the tail-flick test using a tail-flick analgesia meter (EMDIE Instrument Co.). A maximum latency of 10 sec was imposed if no response occurred within that time. Antinociceptive activity, measured as % MPE, was calculated as [(test-control)/(10-control)×100)].
# (§3) Duration of compound and (-)-nicotine-induced antinociception was assessed in mice by measuring antinociception at 2, 5, 10, 20 min after compound (20 μg/kg, s.c.) or nicotine (5 mg/kg, s.c.).
# Mice (7/group) or rats were pretreated i.v. (0.9% saline or antagonist, mecamylamine, hexamethonium, atropine, naloxone or yohimbine) 10 minutes before administration of compound or nicotine at different doses. […]
# [3] = Straub-Tail assay (Table 5); format: in vivo
# From the text: A wide variety of biological assays have been used to evaluate the ability of a compound to act as an analgesic. Any of these known assays can be used to evaluate the analgesic ability of the compounds disclosed herein. The Straub-tail reaction, which is characteristic of opiate alkaloids, has been used as an assay for opiate agonists and antagonists. The assay is described in detail in Br. J. of Pharmacol. 1969, 36, 225. Another accepted assay for analgesic activity is the hot plate analgesia assay, described in J. of Pharmacol. Exp. Therap. 1953, 107, 385. An assay for the evaluation of the ability of a compound to bind to an opiate receptor is described in Mol. Pharmacol. 1974, 10, 868.
# Table 5 provides the analgesic activity measured as ED50 (μg/Kg) for selected compounds disclosed herein, as determined using the Straub-Tail assay, as describe by J. Daily et al. J. Am. […] Chem. Soc. 1992, 114, 3475; T. Li, et al. Bioorganic and Medicinal Chemistry Letters 1993, 3, 2759.
# [4] = target: T2, nicotinic cholinergic receptor (Rattus norvegicus, UniProt P09483+P12390); assay: Competition with [3H](-)-cytisine for binding to rat cortex (brain) receptors (Tables 7, 8, 9)
# T2 construct: A membrane fraction from rat brain cortex; tissue Harlan Laboratories; host or cells: rat brain cortex membranes
# From the text: [^3 -H](-)-Cytisine is a nicotinic cholinergic receptor ligand that binds with high affinity to the a4b2 subtype receptor, the major subtype in rodent brain accounting for >90% of (-)-nicotine binding sites (Flores, et al., 1992; Whiting, et al., 1992). This nicotinic receptor subtype is most sensitive to (-)-nicotine compared to other receptor subtypes (Connolly, et al., (1992). Compounds that compete with cytisine for the nicotinic cholineric receptor are considered nicotine receptor agonists.
# A membrane fraction from rat brain cortex (Harlan Laboratories) was prepared using an adaptation of an established method (Pabreza, et al., 1991). Compound and [^3 H]-(-)-cytisine (New England Nuclear, 42 Ci/mmol) were mixed before addition of membrane (0.5 mg protein) and incubated in glass tubes for 75 minutes on ice; total assay volume was 0.24 ml. Parallel assays to determine nonspecific binding were incubated in the presence of 10 uM (-)-nicotine (Sigma). Bound radioactivity was isolated by vacuum filtration onto glass microfiber filters (Whatman, GF-B) using millipore tubs, followed by 3×4 ml buffer wash. Filters were prerinsed with 0.5% polyethyleneimine prior to sample filtration to reduce nonspecific binding. Bound radioactivity was quantitated by scintillation counting.
# [5] = Tail-flick assay, rat (Table 9); format: in vivo; conditions: sc, 5 min
# Procedure: as §1, §2
# (§4) Mice (7/group) or rats were pretreated i.v. (0.9% saline or antagonist, mecamylamine, hexamethonium, atropine, naloxone or yohimbine) 10 minutes before administration of compound or nicotine at different doses. A control response (1.5-4 sec) was determined for each animal before treatment and test latencies were assessed at 5 minutes after compound administration (5 ml/kg, s.c.) or 2 min after nicotine (5 ml/kg, s.c.).
# [6] = Tail-flick assay, mouse (Table 9); format: in vivo; conditions: sc, 5 min
# Procedure: as §1, §2, §3, §4
# [7] = opiate antagonist naloxone; cited from earlier work
# [8] = tested on: nicotinic cholinergic receptor; conditions: in words; cited from earlier work
# [9] = tested on: a4b2 subtype receptor; conditions: in words; cited from earlier work
# [10] = Table 7, rat brain cortex membranes, read-out: Nicotine Receptor Cytisine IC50
# [11] = Table 9, read-out: rat brain, 3H-cytisine binding IC50
structure (smiles),measurement,setting,value
CN1C2CCC1C(c1ccc(Cl)nc1)C2 (stereo not shown),Inhibition %,[1]; testing level 10^-9,22%
same,Inhibition %,[1]; testing level 10^-11,5%
c1cncc(C2CC3CCC2N3)c1 (stereo not shown),Inhibition %,[1]; testing level 10^-9,103%
C[N+]1(C)C2CCC1C(c1ccc(Cl)nc1)C2 (stereo not shown),Inhibition %,[1]; testing level 10^-9,49%
N=CN1C2CCC1C(c1ccc(Cl)nc1)C2 (stereo not shown),Inhibition %,[1]; testing level 10^-9,49%
same,Inhibition %,[1]; testing level 10^-11,22%
N=CN1C2CCC1C(c1cccnc1)C2 (stereo not shown),Inhibition %,[1]; testing level 10^-9,5%
Cc1cc(C2CC3CCC2N3)on1 (stereo not shown),ED50,[2],> 2 mg/kg
Cc1cc(C2CC3CCC2N3C)on1 (stereo not shown),ED50,[2]; Table 8,~1 mg/kg
c1ccc2nc(C3CC4CCC3N4)ccc2c1 (stereo not shown),ED50,[2],> 2 mg/kg
Clc1ccc([C@H]2C[C@H]3CC[C@@H]2N3)cn1 (relative stereo),ED50,[3],> 0.1 mg/kg
Clc1ccc([C@@H]2C[C@H]3CC[C@@H]2N3CC2CC2)cn1 (relative stereo),effect at 1000 μg/Kg,[3]; @ 1000 (μg/Kg),100%
C[N+]1(C)[C@@H]2CC[C@H]1[C@H](c1ccc(Cl)nc1)C2 (relative stereo),ED50,[3]; read-out: ED50,0.1 to 0.2 mg/kg
Fc1ccc([C@H]2C[C@H]3CC[C@@H]2N3)cn1 (relative stereo),ED50,[3]; read-out: ED50,~0.01 mg/kg
N=CN1[C@@H]2CC[C@H]1[C@H](c1ccc(Cl)nc1)C2 (relative stereo),effect at 100,[3]; @ 100 (dose unit not given; column μg/Kg),99%
Cc1nnc([C@H]2C[C@H]3CC[C@@H]2N3C)o1 (relative stereo),IC50,[4]; [10],32000 nM
same,Tail-Flick Assay % Effect after 5 min,[2],-2.9%
same,Tail-Flick Assay % Effect after 60 min,[2],-3.6%
Cc1nnc([C@@H]2C[C@H]3CC[C@@H]2N3C)o1 (relative stereo),IC50,[4]; [10],150 nM
same,Tail-Flick Assay % Effect after 5 min,[2],6.7%
same,Tail-Flick Assay % Effect after 60 min,[2],24.6%
"Cc1noc([C@@H]2C[C@H]3CC[C@@H]2N3C)n1 (relative stereo) [racemic A/B, (±)-exo-2-(3-methyl-1,2,4-oxadiazol-5-yl)-7-methyl-7-azabicyclo[2.2.1]heptane]",IC50,[4]; [11],100 nM
same,ED50,[5],2.2 mg/kg
same,ED50,[6],0.2 mg/kg
"Cc1noc([C@@H]2C[C@H]3CC[C@@H]2N3C)n1 (single isomer, unassigned) [A]",IC50,[4]; [11],1400 nM
"Cc1noc([C@@H]2C[C@H]3CC[C@@H]2N3C)n1 (single isomer, unassigned) [B]",IC50,[4]; [11],18 nM
"Clc1ccc([C@@H]2C[C@H]3CC[C@@H]2N3)cn1 (single isomer, unassigned) [epibatidine, exo-2-(2-chloro-5-pyridyl)-7-azabicyclo [2.2.1]heptane]",reversal of Straub-tail effect by naloxone,[7],not reversed by the opiate antagonist naloxone
same,nicotinic cholinergic receptor agonism,[8],nicotinic cholinergic receptor agonist
Clc1ccc(C2CC3CCC2N3)cn1 (stereo not shown) [1-epibatidine],ED50,[3],0.009 mg/kg
O=c1cccc2n1C[C@@H]1CNC[C@H]2C1 [[^3 -H](-)-Cytisine],affinity to a4b2 subtype receptor,[9],high affinity
Clc1ccc([C@@H]2C[C@H]3CC[C@@H]2N3)cn1 [d-epibatidine],ED50,[3],0.0075 mg/kg

# Source: patent US6060473A, “7-azabicyclo[2.2.1]-heptane and -heptene derivatives as cholinergic receptor ligands” (priority 1996, dated 2000)
